T/C data for two compounds are collected here from PubChem BioAssay AID258 (DTP/NCI, 2004).

The test system of the assay is CD2F1 mice, L1210 leukemia sc, survival T/C. Put plainly: NCI In Vivo Anticancer Drug Screen. Data for tumor model L1210 Leukemia (subcutaneous) in CD2F1 (CDF1) mice. To be noted: endpoint: median survival time, higher = longer survival. The essentials:
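T/C ratio: treated-group survival or tumor size over vehicle-control group measurement, in mice carrying transplanted tumors.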

Each structure is given as a SMILES string. Several values for one entry are separate records, joined by “and”; a condition that tells them apart may be missing. Equal values may be shown once. Inconclusive results and toxic doses are left out.

Take `O=C(Nc1ccc(C2=NCCN2)cc1)c1ccc(C(=O)Nc2ccc(C3=NCCN3)cc2)c(Cl)c1`: the T/C is 100 % of control (dose: 5.0 mg/kg/injection, schedule: Q01DX Z (iv), vehicle: water); 100 % of control (dose: 8.4 mg/kg/injection, schedule: Q01DX Z (iv), vehicle: water); 120 % of control and 227 % of control (dose: 8.4 mg/kg/injection, schedule: Q01DX Z (sc), vehicle: water); 100 % of control (dose: 14.0 mg/kg/injection, schedule: Q01DX Z (iv), vehicle: water); 188 % of control and 195 % of control and 233 % of control (dose: 14.0 mg/kg/injection, schedule: Q01DX Z (sc), vehicle: water); 205 % of control and 220 % of control and 261 % of control (dose: 23.0 mg/kg/injection, schedule: Q01DX Z (sc), vehicle: water). The T/C reads like this: (dose: 39.0 mg/kg/injection, schedule: Q01DX Z (iv), vehicle: water) 111 % of control; (dose: 39.0 mg/kg/injection, schedule: Q01DX Z (sc), vehicle: water) 211 % of control and 225 % of control and 183 % of control; (dose: 65.0 mg/kg/injection, schedule: Q01DX Z (iv), vehicle: water) 155 % of control; (dose: 65.0 mg/kg/injection, schedule: Q01DX Z (sc), vehicle: water) 188 % of control and 200 % of control and 166 % of control.

Consider `N[C@H](C(=O)O)[C@H]1ON=C(Cl)[C@@H]1O`, for which the T/C is 114 % of control (dose: 16.0 mg/kg/injection, schedule: Q01DX009 (sc), vehicle: saline); 152 % of control (dose: 64.0 mg/kg/injection, schedule: Q01DX009 (sc), vehicle: saline); 120 % of control (dose: 1024.0 mg/kg/injection, schedule: Q01DX009 (sc), vehicle: saline).
